Data from patent US8354441B2, “Oxazoline derivatives” (Hoffmann-La Roche Inc., priority 2009, dated 2013).

Assays:
mouse TAAR1 = biological target: T1, mouse TAAR1 (Mus musculus, UniProt Q923Y8); assay: TAAR1 radioligand binding with [3H]-rac-2-(1,2,3,4-tetrahydro-1-naphthyl)-2-imidazoline, membranes of stably transfected HEK293 cells; settings: first value of the cell, read-out: Ki (μM) mouse/rat: mouse
T1 construct: expressed in transfected cells; host or cells: HEK293 (ATCC # CRL-1573), stably transfected with pIRESneo2 expression plasmid
T1 sequence (Q923Y8 whole entry): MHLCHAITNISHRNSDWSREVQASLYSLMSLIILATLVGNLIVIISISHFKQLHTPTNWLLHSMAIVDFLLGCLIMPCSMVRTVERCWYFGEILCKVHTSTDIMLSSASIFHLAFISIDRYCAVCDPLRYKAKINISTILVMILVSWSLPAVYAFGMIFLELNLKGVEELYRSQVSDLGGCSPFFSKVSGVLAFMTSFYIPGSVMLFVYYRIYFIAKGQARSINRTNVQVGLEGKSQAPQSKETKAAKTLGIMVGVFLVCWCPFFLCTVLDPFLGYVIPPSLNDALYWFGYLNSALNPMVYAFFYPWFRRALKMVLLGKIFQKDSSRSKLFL
Outline: (§1)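 Competition binding: competitors spanning 10 pM–30 μM displace 60 nM [3H]-rac-2-(1,2,3,4-tetrahydro-1-naphthyl)-2-imidazoline from stably transfected HEK293 membranes (mouse or rat receptor), 30 min, 4 °C, pH 7.0 buffer with Mg2+/Ca2+. Bound label counted after GF/C filtration; 10 μM unlabelled ligand defines non-specific binding.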

rat TAAR1 = biological target: T2, rat TAAR1 (Rattus norvegicus, UniProt Q923Y9); assay: as above; settings: second value of the cell, read-out: Ki (μM) mouse/rat: rat
T2 construct: expressed in transfected cells; host or cells: HEK293 (ATCC # CRL-1573), stably transfected with pIRESneo2 expression plasmid
T2 sequence (Q923Y9 whole entry): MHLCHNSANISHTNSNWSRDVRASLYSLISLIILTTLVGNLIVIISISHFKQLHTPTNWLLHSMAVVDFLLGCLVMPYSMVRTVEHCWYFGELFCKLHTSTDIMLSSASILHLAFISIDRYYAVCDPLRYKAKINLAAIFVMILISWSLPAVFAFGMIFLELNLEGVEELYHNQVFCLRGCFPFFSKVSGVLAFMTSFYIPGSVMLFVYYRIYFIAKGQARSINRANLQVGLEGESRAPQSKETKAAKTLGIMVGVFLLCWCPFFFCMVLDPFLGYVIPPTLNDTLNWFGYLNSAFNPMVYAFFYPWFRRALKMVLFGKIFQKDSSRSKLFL
Outline: as §1

| SMILES | Ki (mouse TAAR1) | Ki (rat TAAR1) |
| --- | --- | --- |
| CO[C@H](C(=O)Nc1ccc(CC[C@H]2COC(N)=N2)cc1)c1ccccc1 [Example 74, (S)-N-{4-[2-((S)-2-Amino-4,5-dihydro-oxazol-4-yl)-ethyl]-phenyl}-2-methoxy-2-phenyl-acetamide] | 0.009 µM | 0.0073 µM |
| N#Cc1ccc(C(=O)Nc2ccc(CC[C@H]3COC(N)=N3)cc2)cc1 [Example 59, N-{4-[2-((S)-2-Amino-4,5-dihydro-oxazol-4-yl)-ethyl]-phenyl}-4-cyano-benzamide] | 0.0022 µM | 0.0022 µM |
| NC1=N[C@@H](CCc2ccc(NC(=O)Nc3ccc(Cl)nc3)cc2)CO1 [Example 38, 1-{4-[2-((S)-2-Amino-4,5-dihydro-oxazol-4-yl)-ethyl]-phenyl}-3-(6-chloro-pyridin-3-yl)-urea] | 0.0017 µM | 0.0004 µM |
| NC1=N[C@@H](CCc2ccc(NC(=O)Nc3ccc(Cl)cc3)cc2)CO1 [Example 3, 1-{4-[2-((S)-2-Amino-4,5-dihydro-oxazol-4-yl)-ethyl]-phenyl}-3-(4-chloro-phenyl)-urea] | 0.0002 µM | 0.0003 µM |
| COCc1ccc(C(=O)Nc2ccc(CC[C@H]3COC(N)=N3)cc2)cc1 [Example 63, N-{4-[2-((S)-2-Amino-4,5-dihydro-oxazol-4-yl)-ethyl]-phenyl}-4-methoxymethyl-benzamide] | 0.0026 µM | 0.0013 µM |
| N#Cc1ccc(C(=O)Nc2ccc(CC[C@H]3COC(N)=N3)cc2)nc1 [Example 119, (S)-N-(4-(2-(2-Amino-4,5-dihydrooxazol-4-yl)ethyl)phenyl)-5-cyanopicolinamide] | 0.0015 µM | 0.0044 µM |
| COc1ccc(C(=O)Nc2ccc(CC[C@H]3COC(N)=N3)cc2)nc1 [Example 117, (S)-N-(4-(2-(2-Amino-4,5-dihydrooxazol-4-yl)ethyl)phenyl)-5-methoxypicolinamide] | 0.002 µM | 0.0008 µM |
| NC1=N[C@@H](CCc2ccc(NC(=O)Nc3ccc(F)cc3)cc2)CO1 [Example 94, 1-{4-[2-((S)-2-Amino-4,5-dihydro-oxazol-4-yl)-ethyl]-phenyl}-3-(4-fluoro-phenyl)-urea] | 0.0003 µM | 0.0003 µM |
| NC1=N[C@@H](CCc2ccc(NC(=O)c3ccc(F)nc3)cc2)CO1 [Example 121, (S)-N-(4-(2-(2-Amino-4,5-dihydrooxazol-4-yl)ethyl)phenyl)-6-fluoronicotinamide] | 0.0032 µM | 0.0046 µM |
| NC1=N[C@@H](CCc2ccc(NC(=O)Cc3ccc(Cl)cc3)cc2)CO1 [Example 70, N-{4-[2-((S)-2-Amino-4,5-dihydro-oxazol-4-yl)-ethyl]-phenyl}-2-(4-chloro-phenyl)-acetamide] | 0.001 µM | 0.001 µM |
| NC1=N[C@@H](CCc2ccc(NC(=O)c3cnc(N4CCCCC4)nc3)cc2)CO1 [Example 123, (S)-N-(4-(2-(2-Amino-4,5-dihydrooxazol-4-yl)ethyl)phenyl)-2-(piperidin-1-yl)pyrimidine-5-carboxamide] | 0.0007 µM | 0.0017 µM |
| NC1=N[C@@H](CCc2ccc(C(=O)Nc3ccc(Cl)cc3)cc2)CO1 [Example 48, 4-[2-((S)-2-Amino-4,5-dihydro-oxazol-4-yl)-ethyl]-N-(4-chloro-phenyl)-benzamide] | 0.001 µM | 0.0003 µM |
| NC1=N[C@@H](CCc2ccc(NC(=O)Oc3cccc(C(F)(F)F)c3)cc2)CO1 [Example 149, {4-[2-((S)-2-Amino-4,5-dihydro-oxazol-4-yl)-ethyl]-phenyl}-carbamic acid 3-trifluoromethyl-phenyl ester] | 0.0097 µM | 0.0092 µM |
| NC1=N[C@@H](CCc2ccc(NC(=O)c3ccc(Cl)nc3)cc2)CO1 [Example 31, N-{4-[2-((S)-2-Amino-4,5-dihydro-oxazol-4-yl)-ethyl]-phenyl}-6-chloro-nicotinamide] | 0.0025 µM | 0.0035 µM |
| NC1=N[C@@H](CCc2ccc(NC(=O)c3ccc(C(F)(F)F)cc3)cc2)CO1 [Example 17, N-{4-[2-((S)-2-Amino-4,5-dihydro-oxazol-4-yl)-ethyl]-phenyl}-4-trifluoromethyl-benzamide] | 0.0002 µM | 0.0004 µM |
| CC[C@@H](C[C@H]1COC(N)=N1)c1ccc(NC(=O)Nc2ccc(F)cc2)cc1 [Example 12, 1-{4-[(S)-1-((S)-2-Amino-4,5-dihydro-oxazol-4-ylmethyl)-propyl]-phenyl}-3-(4-fluoro-phenyl)-urea] | 0.0012 µM | 0.002 µM |
| NC1=N[C@@H](CCc2ccc(NC(=O)c3ccc(Br)nc3)cc2)CO1 [Example 106, N-{4-[2-((S)-2-Amino-4,5-dihydro-oxazol-4-yl)-ethyl]-phenyl}-6-bromo-nicotinamide] | 0.0012 µM | 0.0009 µM |
| NC1=N[C@@H](CCc2ccc(NC(=O)Nc3ccc(C(F)(F)F)cc3)cc2)CO1 [Example 15, 1-{4-[2-((S)-2-Amino-4,5-dihydro-oxazol-4-yl)-ethyl]-phenyl}-3-(4-trifluoromethyl-phenyl)-urea] | 0.0001 µM | 0.0001 µM |
| CCOc1ccc(CC(=O)Nc2ccc(CC[C@H]3COC(N)=N3)cc2)cc1 [Example 66, N-{4-[2-((S)-2-Amino-4,5-dihydro-oxazol-4-yl)-ethyl]-phenyl}-2-(4-ethoxy-phenyl)-acetamide] | 0.0026 µM | 0.0017 µM |
| COC(C(=O)Nc1ccc(CC[C@H]2COC(N)=N2)cc1)c1ccc(Br)cc1 (stereo partly drawn) [Example 73, N-{4-[2-((S)-2-Amino-4,5-dihydro-oxazol-4-yl)-ethyl]-phenyl}-2-(4-bromo-phenyl)-2-methoxy-acetamide] | 0.0026 µM | 0.0049 µM |

Continued, values first:

| Ki (mouse TAAR1) | Ki (rat TAAR1) | SMILES |
| --- | --- | --- |
| 0.0018 µM | 0.0027 µM | NC1=N[C@@H](CCc2ccc(NC(=O)c3cnc(N4CCC(F)(F)CC4)cn3)cc2)CO1 [Example 164] |
| 0.0008 µM | 0.0011 µM | Cc1ccc(C(=O)Nc2ccc(CC[C@H]3COC(N)=N3)cc2)nc1 [Example 171, (S)-N-(4-(2-(2-Amino-4,5-dihydrooxazol-4-yl)ethyl)phenyl)-5-methylpicolinamide] |
| 0.0013 µM | 0.0035 µM | NC1=N[C@@H](CCc2ccc(NC(=O)c3cnc(C(F)(F)F)nc3C3CC3)cc2)CO1 [Example 209, (S)-N-(4-(2-(2-Amino-4,5-dihydrooxazol-4-yl)ethyl)phenyl)-4-cyclopropyl-2-(trifluoromethyl)pyrimidine-5-carboxamide] |
| 0.0004 µM | 0.0004 µM | CCc1ccc(C(=O)Nc2ccc(CC[C@H]3COC(N)=N3)cc2)nc1 [Example 178, (S)-N-(4-(2-(2-Amino-4,5-dihydrooxazol-4-yl)ethyl)phenyl)-5-ethylpicolinamide] |
| 0.0009 µM | 0.0013 µM | COc1cc(C(=O)Nc2ccc(CC[C@H]3COC(N)=N3)cc2)nc(Cl)n1 [Example 231, 2-Chloro-6-methoxy-pyrimidine-4-carboxylic acid {4-[2-((S)-2-amino-4,5-dihydro-oxazol-4-yl)-ethyl]-phenyl}-amide] |
| 0.0028 µM | 0.0023 µM | CCc1cnc(C(=O)Nc2ccc(CC[C@H]3COC(N)=N3)cc2)cn1 [Example 208, (S)-N-(4-(2-(2-Amino-4,5-dihydrooxazol-4-yl)ethyl)phenyl)-5-ethylpyrazine-2-carboxamide] |
| 0.0011 µM | 0.0021 µM | C[C@@H]1OC(N)=N[C@H]1CCc1ccc(NC(=O)c2ccc(C(F)(F)F)cn2)cc1 [Example 226, 5-Trifluoromethyl-pyridine-2-carboxylic acid {4-[2-((4S,5S)-2-amino-5-methyl-4,5-dihydro-oxazol-4-yl)-ethyl]-phenyl}-amide] |
| 0.0048 µM | 0.0037 µM | COc1cc(C(=O)Nc2ccc(CC[C@@H]3N=C(N)O[C@H]3C)cc2)nc(Cl)n1 [Example 219, 2-Chloro-6-methoxy-pyrimidine-4-carboxylic acid {4-[2-((4S,5S)-2-amino-5-methyl-4,5-dihydro-oxazol-4-yl)-ethyl]-phenyl}-amide] |
| 0.0012 µM | 0.0038 µM | CC(C)c1ocnc1C(=O)Nc1ccc(CC[C@H]2COC(N)=N2)cc1 [Example 215, (S)-N-(4-(2-(2-Amino-4,5-dihydrooxazol-4-yl)ethyl)phenyl)-5-isopropyloxazole-4-carboxamide] |
| 0.0004 µM | 0.0006 µM | Cc1cc(C(=O)Nc2ccc(CC[C@H]3COC(N)=N3)cc2)ncc1Cl [Example 155, (S)-N-(4-(2-(2-Amino-4,5-dihydrooxazol-4-yl)ethyl)phenyl)-5-chloro-4-methylpicolinamide] |
| 0.008 µM | 0.0002 µM | C#Cc1ccc(NC(=O)c2ccc(CC[C@H]3COC(N)=N3)cc2)nc1 [Example 152, (S)-4-(2-(2-Amino-4,5-dihydrooxazol-4-yl)ethyl)-N-(5-ethynylpyridine-2-yl)benzamide] |
| 0.003 µM | 0.0049 µM | CC(C)(C)c1cc(C(=O)Nc2ccc(CC[C@H]3COC(N)=N3)cc2)ccn1 [Example 197, (S)-N-(4-(2-(2-Amino-4,5-dihydrooxazol-4-yl)ethyl)phenyl)-2-tert-butylisonicotinamide] |
| 0.0007 µM | 0.0011 µM | COc1cc(C(=O)Nc2ccc(CC[C@H]3COC(N)=N3)cc2)nc(C(C)C)n1 [Example 207, 2-Isopropyl-6-methoxy-pyrimidine-4-carboxylic acid {4-[2-((S)-2-amino-4,5-dihydro-oxazol-4-yl)-ethyl]-phenyl}-amide] |
| 0.0059 µM | 0.0023 µM | Cc1nc(C(=O)Nc2ccc(CC[C@H]3COC(N)=N3)cc2)c(C)o1 [Example 179, (S)-N-(4-(2-(2-Amino-4,5-dihydrooxazol-4-yl)ethyl)phenyl)-2,5-dimethyloxazole-4-carboxamide] |
| 0.0008 µM | 0.0018 µM | CC(C)c1sc(N(C)C)nc1C(=O)Nc1ccc(CC[C@H]2COC(N)=N2)cc1 [Example 189, (S)-N-(4-(2-(2-Amino-4,5-dihydrooxazol-4-yl)ethyl)phenyl)-2-(dimethylamino)-5-isopropylthiazole-4-carboxamide] |
